Common to all, as to assay type: cell-based
In assay [1] the target is T1, hS1P3 (Homo sapiens, UniProt Q99500). The experiment in a line: Suppressive effect on S1P-induced increase in [Ca2+]i, CHO-K1 cells expressing S1P3 (Fura 2-AM), IC50. The conditions noted are these: S1P solution 50 nmol/L, read-out: hS1P3 suppression IC50.
Assay [2] concerns the target T1, hS1P3. The experiment in a line: S1P receptor subtype selectivity, S1P-induced [Ca2+]i increase in CHO-K1 cells stably expressing S1P3 (Calcium3). The conditions noted are these: 10 μM; CHO-K1 stably expressing S1P3; S1P solution 50 nmol/L; Calcium3; read-out: Suppression rate at 10 μM (%) hS1P3. The procedure: (§1) The selectivity to the S1P receptor subtype was examined in the following manner. […] Furthermore, a Calcium3 (Molecular Devices, Inc.) solution prepared in HBSS (+) buffer, which is a fluorescent Ca^2+ indicator, was added, and the cells were incubated for 60 minutes at 37° C. Then, 100 μL of a test compound solution prepared to a concentration of 2×10 μmol/L was added, and the cells were incubated for 20 minutes at 37° C. […] The indicator was prepared and used according to the instruction manual.
(§2) A solution of the test compound was prepared by dissolving each of the test compounds in DMSO to a concentration of 10 mmol/L, and then diluting the solution with an HBSS (+) buffer solution to the predetermined concentration. […] The measurement values were obtained by subtracting the maximum RFU value for the blind test from the maximum RFU values for control or each test compounds. A decrease in the measurement value for the test compound relative to the control was indicated as the suppression rate (%), from which the IC50 value was calculated.

Another assay addresses T2, hS1P2 (Homo sapiens, UniProt O95136).
T2 construct: expressed in transfected cells
The experiment in a line: S1P receptor subtype selectivity, S1P-induced [Ca2+]i increase in CHO-K1 cells stably expressing S1P2 (Calcium3). The procedure:
as §1, §2

Another assay concerns the target T3, hS1P1 (Homo sapiens, UniProt P21453).
T3 construct: expressed in transfected cells
The experiment in a line: S1P receptor subtype selectivity, S1P-induced [Ca2+]i increase in CHO-K1 cells stably expressing S1P1 (Calcium3). The procedure: as §1, §2

Where [3] appears, read: 10 μM, CHO-K1 stably expressing S1P2, S1P solution 100 nmol/L, Calcium3, read-out: Suppression rate at 10 μM (%) hS1P2.
Setting [4] is: 10 μM, CHO-K1 stably expressing S1P1, S1P solution 100 nmol/L, Calcium3, read-out: Suppression rate at 10 μM (%) hS1P1.
Where [5] appears, read: CHO-K1, read-out: Suppression rate at 10 μM (%) hS1P2.
Setting [6] is: CHO-K1, read-out: Suppression rate at 10 μM (%) hS1P1.

The IC50 is the concentration that gives 50% inhibition.

Read-outs that look alike come from different tables or passages of the source.

T2 sequence (O95136 whole entry): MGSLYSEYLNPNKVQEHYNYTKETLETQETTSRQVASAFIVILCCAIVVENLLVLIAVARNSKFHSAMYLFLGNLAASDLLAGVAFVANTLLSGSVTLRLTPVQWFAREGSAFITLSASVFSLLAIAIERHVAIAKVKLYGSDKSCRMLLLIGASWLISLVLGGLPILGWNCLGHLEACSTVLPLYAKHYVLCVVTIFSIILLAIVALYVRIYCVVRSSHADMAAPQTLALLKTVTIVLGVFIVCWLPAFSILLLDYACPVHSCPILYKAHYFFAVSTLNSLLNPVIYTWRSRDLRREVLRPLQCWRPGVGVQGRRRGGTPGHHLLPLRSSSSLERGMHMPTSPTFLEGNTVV
T3 sequence (P21453 whole entry): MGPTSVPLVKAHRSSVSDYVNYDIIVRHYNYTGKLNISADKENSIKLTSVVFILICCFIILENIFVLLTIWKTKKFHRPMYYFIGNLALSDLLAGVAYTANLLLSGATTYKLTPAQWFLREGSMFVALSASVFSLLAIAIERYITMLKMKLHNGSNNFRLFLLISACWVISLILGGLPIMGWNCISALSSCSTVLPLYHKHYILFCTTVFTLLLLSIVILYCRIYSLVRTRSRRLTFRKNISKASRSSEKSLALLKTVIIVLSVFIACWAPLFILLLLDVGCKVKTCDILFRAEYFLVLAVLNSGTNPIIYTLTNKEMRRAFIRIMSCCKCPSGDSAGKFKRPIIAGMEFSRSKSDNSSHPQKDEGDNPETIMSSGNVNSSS
T1 sequence (Q99500 whole entry): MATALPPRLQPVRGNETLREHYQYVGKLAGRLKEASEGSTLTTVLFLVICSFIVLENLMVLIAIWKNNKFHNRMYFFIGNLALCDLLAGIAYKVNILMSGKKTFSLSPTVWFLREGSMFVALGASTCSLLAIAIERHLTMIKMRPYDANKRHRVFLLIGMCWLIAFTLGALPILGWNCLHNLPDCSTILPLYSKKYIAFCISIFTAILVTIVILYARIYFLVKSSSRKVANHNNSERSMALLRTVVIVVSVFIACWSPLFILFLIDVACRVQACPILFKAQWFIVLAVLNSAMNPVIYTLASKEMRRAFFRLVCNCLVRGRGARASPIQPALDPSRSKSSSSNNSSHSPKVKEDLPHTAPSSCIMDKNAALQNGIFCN

In the case of `O=C(C(=NNc1ccc(Cl)cc1)Nc1cccc(F)c1F)c1ccccc1` [Compound 3, 2-(4-chlorophenylhydrazono)-2-(2,3-difluorophenylamino)acetophenone], at hS1P3 [1], the IC50 was 14700 nM. The results for the inhibition at 10 µM on hS1P3 [2], at hS1P2 (setting [3]) and at hS1P1 (setting [4]) were 68.5%, -0.4% and 18.6%, respectively.

`O=C(C(=NNc1ccc(Cl)cc1)Nc1cccc(F)c1)N1CCCCC1` [Compound 21, [1-(4-Chlorophenylhydrazono)-1-(3-fluorophenylamino)acetyl]piperidine]: the IC50 on hS1P3 [1] came to 26800 nM. Also, the inhibition at 10 µM on hS1P3 [2] is 91.1%; at hS1P2 (setting [3]), 13.7%; at hS1P1 (setting [4]), 17.5%.

On to `CC(C)(C)C(=O)C(=NNc1ccccc1)Nc1ccc(Cl)c(Cl)c1` [Compound 52, 1-(3,4-dichlorophenylamino)-1-(phenylhydrazono)-3,3-dimethyl-2-butanone], for which, on hS1P3 [1], the IC50 amounted to 1020 nM. The inhibition at 10 µM at hS1P2 (setting [3]) is 26.2%; on hS1P1 (setting [4]), 29.5%.

In the case of `CC(C)(C)C(=O)C(=NNc1ccc(F)cc1)Nc1cccc(F)c1` [Compound 53, 1-(3-fluorophenylamino)-1-(4-fluorophenylhydrazono)-3,3-dimethyl-2-butanone], at hS1P3 [1], the IC50 is 4470 nM. For the same compound, the figures for the inhibition at 10 µM at hS1P2 (setting [3]) and at hS1P1 (setting [4]) were 18.5% and 27.1%, respectively.

For the compound `CC(C)(C)C(=O)C(=NNc1ccc(F)cc1)Nc1ccc(F)cc1` [Compound 54, 1-(4-fluorophenylamino)-1-(4-fluorophenylhydrazono)-3,3-dimethyl-2-butanone], at hS1P3 [1], the IC50 amounted to 4380 nM. Besides, the inhibition at 10 µM on hS1P3 [2] was 101%; on hS1P2 (setting [3]) it was 16%; on hS1P1 (setting [4]) it was 22%.

With `COc1ccc(NC(=NNc2ccc(F)cc2)C(=O)C(C)(C)C)cc1` [Compound 57, 1-(4-fluorophenylhydrazono)-1-(4-methoxyphenylamino)-3,3-dimethyl-2-butanone], the IC50 at hS1P3 [1] was found to be 4950 nM. For the same compound, the inhibition at 10 µM turned out to be 15% at hS1P2 (setting [3]) and 11.5% at hS1P1 (setting [4]).

Consider `Cc1ccc(NN=C(Nc2cccc(F)c2)C(=O)C(C)(C)C)cc1` [Compound 61, 1-(3-fluorophenylamino)-1-(4-methylphenylhydrazono)-3,3-dimethyl-2-butanone], for which the half-inhibitory concentration (IC50) at hS1P3 [1] is 3220 nM. The inhibition at 10 µM was 8.1% on hS1P2 (setting [3]) and -2.9% at hS1P1 (setting [4]).

On to `Cc1ccc(NN=C(Nc2ccc(Cl)cc2)C(=O)C(C)(C)C)cc1` [Compound 62, 1-(4-chlorophenylamino)-1-(4-methylphenylhydrazono)-3,3-dimethyl-2-butanone], for which the 50% inhibitory concentration (IC50) on hS1P3 [1] stood at 1720 nM. Besides, the inhibition at 10 µM was 7.4% on hS1P2 (setting [5]) and -9.7% at hS1P1 (setting [6]).

Consider `Cc1ccc(NN=C(Nc2ccc(C)cc2)C(=O)C(C)(C)C)cc1` [Compound 63, 1-(4-methylphenylamino)-1-(4-methylphenylhydrazono)-3,3-dimethyl-2-butanone], for which the IC50 on hS1P3 [1] is 5710 nM. Moreover, the inhibition at 10 µM on hS1P2 (setting [5]) is -1.4%; at hS1P1 (setting [6]), -9.1%.

For the compound `Cc1ccc(NN=C(Nc2ccc(Cl)c(Cl)c2)C(=O)C(C)(C)C)cc1` [Compound 65, 1-(3,4-dichlorophenylamino)-1-(4-methylphenylhydrazono)-3,3-dimethyl-2-butanone], at hS1P3 [1], the IC50 was 670 nM. Moreover, the inhibition at 10 µM was determined as 10% at hS1P2 (setting [3]) and 5.1% at hS1P1 (setting [4]).

Turning to `CC(C)(C)C(=O)C(=NNc1ccc(C(F)(F)F)cc1)Nc1ccc(F)cc1` [Compound 67, 1-(4-fluorophenylamino)-1-(4-trifluoromethylphenylhydrazono)-3,3-dimethyl-2-butanone], the IC50 at hS1P3 [1] came to 8200 nM. In addition, the inhibition at 10 µM at hS1P3 [2] was 90.2%; at hS1P2 (setting [3]), 15.5%; on hS1P1 (setting [4]), 20.8%.

As to `CC(C)(C)C(=O)C(=NNc1ccc(Br)cc1)Nc1cccc(F)c1` [Compound 73, 1-(4-bromophenylhydrazono)-1-(3-fluorophenylamino)-3,3-dimethyl-2-butanone], the IC50 on hS1P3 [1] came out at 1900 nM. In addition, the inhibition at 10 µM was determined as 22.3% on hS1P2 (setting [3]) and 5.1% at hS1P1 (setting [4]).

For the compound `CC(C)(C)C(=O)C(=NNc1ccc(Br)cc1)Nc1ccc(F)cc1` [Compound 74, 1-(4-bromophenylhydrazono)-1-(4-fluorophenylamino)-3,3-dimethyl-2-butanone], the IC50 at hS1P3 [1] was found to be 2320 nM. Further, the figures for the inhibition at 10 µM on hS1P3 [2], on hS1P2 (setting [3]) and on hS1P1 (setting [4]) were 105%, 23.2% and 20.4%, respectively.

As to `CC(C)(C)C(=O)C(=NNc1ccc(Br)cc1)Nc1ccc(Cl)cc1` [Compound 75, 1-(4-bromophenylhydrazono)-1-(4-chlorophenylamino)-3,3-dimethyl-2-butanone], the IC50 at hS1P3 [1] came to 1170 nM. In addition, the inhibition at 10 µM at hS1P2 (setting [5]) came to 17.9%; at hS1P1 (setting [6]) it was 17%.

As to `CC(C)(C)C(=O)C(=NNc1ccc(Br)cc1)Nc1ccc(Br)cc1` [Compound 76, 1-(4-bromophenylamino)-1-(4-bromophenylhydrazono)-3,3-dimethyl-2-butanone], the IC50 at hS1P3 [1] came to 1660 nM. The inhibition at 10 µM on hS1P3 [2] worked out at 103%; at hS1P2 (setting [3]), 26.1%; at hS1P1 (setting [4]), 5.1%.

As for `CC(C)(C)C(=O)C(=NNc1ccc(Br)cc1)Nc1ccc(Cl)c(Cl)c1` [Compound 80, 1-(4-bromophenylhydrazono)-1-(3,4-dichlorophenylamino)-3,3-dimethyl-2-butanone], at hS1P3 [1], the IC50 turned out to be 380 nM. Further, the inhibition at 10 µM on hS1P2 (setting [3]) came out at 26.3%; on hS1P1 (setting [4]), 20.6%.

For `CC(C)(C)C(=O)C(=NNc1ccc(Cl)c(Cl)c1)Nc1cccc(F)c1` [Compound 104, 1-(3,4-dichlorophenylhydrazono)-1-(3-fluorophenylamino)-3,3-dimethyl-2-butanone], at hS1P3 [1], the IC50 turned out to be 430 nM. The inhibition at 10 µM on hS1P2 (setting [3]) is 18.9%; at hS1P1 (setting [4]), 28.3%.

In the case of `C#Cc1ccc(NN=C(Nc2cccc(Cl)c2)C(=O)C(C)(C)C)cc1` [Compound 108, 1-(3-chlorophenylamino)-1-(4-ethynylphenylhydrazono)-3,3-dimethyl-2-butanone], the IC50 at hS1P3 [1] was 840 nM. The inhibition at 10 µM is 15.8% on hS1P2 (setting [5]) and 11.1% at hS1P1 (setting [6]).

On to `CC(C)(C)CC(=O)C(=NNc1ccc(Cl)cc1)Nc1cccc(F)c1` [Compound 113, 1-(4-chlorophenylhydrazono)-1-(3-fluorophenylamino)-4,4-dimethyl-2-pentanone], for which the IC50 at hS1P3 [1] worked out at 1780 nM. The inhibition at 10 µM on hS1P2 (setting [3]) stood at 20.7%; at hS1P1 (setting [4]), 5.9%.

As to `CCCCC(=O)C(=NNc1ccc(Cl)cc1)Nc1ccc(Cl)cc1` [Compound 115, 1-(4-chlorophenylamino)-1-(4-chlorophenylhydrazono)-2-hexanone], on hS1P3 [1], the IC50 was 2470 nM. The inhibition at 10 µM turned out to be 27% at hS1P2 (setting [5]) and 24.3% on hS1P1 (setting [6]).

As for `C#Cc1ccc(NC(=NNc2ccc(Cl)cc2)C(=O)c2ccco2)cc1` [Compound 117, 1-(4-chlorophenylhydrazono)-1-(4-ethynylphenylamino)-2-(2-furyl)-2-ethanone], the IC50 at hS1P3 [1] was 2340 nM. The figures for the inhibition at 10 µM at hS1P2 (setting [5]) and on hS1P1 (setting [6]) were 31.6% and 20.4%, respectively.

Take `C#Cc1ccc(NN=C(Nc2cccc(F)c2)C(=O)C(C)(C)C)cc1` [Compound 131, 1-(3-fluorophenylamino)-1-(4-ethynylphenylhydrazono)-3,3-dimethyl-2-butanone]: the IC50 at hS1P3 [1] was 750 nM. The inhibition at 10 µM at hS1P2 (setting [3]) worked out at 24.7%; on hS1P1 (setting [4]), 15.7%.

In the case of `CC(C)(C)C(=O)C(=NNc1ccc(Cl)cc1)Nc1cccc(Cl)c1` [Compound 133, 1-(3-chlorophenylamino)-1-(4-chlorophenylhydrazono)-3,3-dimethyl-2-butanone], the IC50 at hS1P3 [1] amounted to 840 nM. Besides, the inhibition at 10 µM on hS1P2 (setting [5]) was 37.7%; on hS1P1 (setting [6]) it was 16.7%.

With `CCC(CC)C(=O)C(=NNc1ccc(Cl)cc1)Nc1cccc(Cl)c1` [Compound 137, 1-(3-chlorophenylamino)-1-(4-chlorophenylhydrazono)-3-ethyl-2-pentanone], at hS1P3 [1], the IC50 was determined as 1590 nM. The inhibition at 10 µM at hS1P2 (setting [5]) stood at 30.1%; on hS1P1 (setting [6]), 35.3%.

For the compound `CC(C)(C)CC(=O)C(=NNc1ccc(Cl)cc1)Nc1ccc(Cl)cc1` [Compound 139, 1-(4-chlorophenylamino)-1-(4-chlorophenylhydrazono)-4,4-dimethyl-2-pentanone], the IC50 on hS1P3 [1] was found to be 1700 nM. The values for the inhibition at 10 µM at hS1P2 (setting [5]) and at hS1P1 (setting [6]) were 40.6% and 14.9%, respectively.

With `CC(C)(C)CC(=O)C(=NNc1ccc(Cl)cc1)Nc1cccc(Cl)c1` [Compound 140, 1-(3-chlorophenylamino)-1-(4-chlorophenylhydrazono)-4,4-dimethyl-2-pentanone], the IC50 at hS1P3 [1] was 1990 nM. The figures for the inhibition at 10 µM on hS1P2 (setting [5]) and at hS1P1 (setting [6]) were 26.2% and 18.3%, respectively.
